From patent publication US8226966B2, “Fungicide N-6-membered fused (hetero) aryl-methylene-N-cycloalkyl carboxamide derivatives” (Bayer Cropscience AG, priority 2007, dated 2012)

Assay: logP by HPLC on reversed-phase column (C 18), EEC Directive 79/831 Annex V.A8
Format: physicochemical
Settings: 40° C., 0.1% aqueous formic acid and acetonitrile, linear gradient 10% to 90% acetonitrile
Method: In the following table, the logP values were determined in accordance with EEC Directive 79/831 Annex V.A8 by HPLC (High Performance Liquid Chromatography) on a reversed-phase column (C 18), using the method described below: Temperature: 40° C.; Mobile phases: 0.1% aqueous formic acid and acetonitrile linear gradient from 10% acetonitrile to 90% acetonitrile. Calibration was carried out using unbranched alkan-2-ones (comprising 3 to 16 carbon atoms) with known logP values (determination of the logP values by the retention times using linear interpolation between two successive alkanones).
COc1ccc2ccc(OC)c(CN(C(=O)c3c(C)nn(C)c3F)C3CC3)c2c1 [Example 222] showed a LogP of 2.96.
In the case of Cc1nn(C)c(F)c1C(=O)N(Cc1ccc(Br)c2cccnc12)C1CC1 [Example 167], the LogP is reported as 2.9.

Same assay, conditions: 40° C., 0.1% aqueous formic acid and acetonitrile, linear gradient from 10% to 90% acetonitrile
COc1nn(C)cc1C(=S)N(Cc1ccc2ccccc2c1Br)C1CC1 [Example 28] gave a LogP of 4.25.
In the case of Cc1ccc2ccccc2c1CN(C(=O)c1cn(C)nc1C(F)F)C1CC1 [Example 40], the LogP is reported as 3.25.
For Cn1cc(C(=O)N(Cc2ccc3ccccc3c2Br)C2CC2)c(C(F)F)n1 [Example 26], the LogP was 3.68.
With Cc1cc(C(=O)N(C2CC2)C(C)c2ccc(Br)c3ccccc23)c(C)o1 (stereo not shown) [Example 60] the LogP was 5.2.
Work on COc1nn(C)cc1C(=O)N(C1CC1)C(C)c1cccc2ccccc12 (stereo not shown) [Example 75] yielded a LogP of 2.86.
Work on Cc1nn(C)c(F)c1C(=O)N(Cc1ccc(Br)c2ccccc12)C1CC1 [Example 54] yielded a LogP of 3.62.
For Cc1nn(C)c(F)c1C(=S)N(Cc1ccc2ccccc2c1Br)C1CC1 [Example 25], the LogP was 4.39.
With COC(=O)C(c1cccc2ccccc12)N(C(=O)c1cn(C)nc1C(F)F)C1CC1 (stereo not shown) [Example 69] the LogP was 3.02.
For Cn1cc(C(=O)N(Cc2ccc(Br)c3ccccc23)C2CC2)c(C(F)F)n1 [Example 55], the LogP was 3.69.
With COC(=O)C(c1cccc2ccccc12)N(C(=O)c1c(C)nn(C)c1F)C1CC1 (stereo not shown) [Example 63] the LogP was 2.92.
COc1nn(C)cc1C(=O)N(Cc1ccc2ccccc2c1Br)C1CC1 [Example 27] gave a LogP of 3.24.
